Test results as given in patent US9617602B2, “Methods and compositions for determining resistance to androgen receptor therapy” (Aragon Pharmaceuticals, Inc., priority 2012, dated 2017).

Experiments:
Assay type in all cases: cell-based, human
LNCaP/AR(cs) cells = experiment: Endogenous gene transcriptional assay (real-time PCR of androgen responsive genes);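 for ORM1 expression, agonist transcription: LNCaP/AR(cs) cells without added R1881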;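 for PLD1 expression, agonist transcription: LNCaP/AR(cs) cells without added R1881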;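 for PSA expression, agonist transcription: LNCaP/AR(cs) cells without added R1881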;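 for SLUG expression, agonist transcription: LNCaP/AR(cs) cells without added R1881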;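 for TMPRSS2 expression, agonist transcription: LNCaP/AR(cs) cells without added R1881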
[1] = tested on: Class 1 ARN-509- and MDV3100-resistant cell lines; experiment: Proliferation assay (CellTiter-Glo), agonist and antagonist mode
LNCaP ARN-509r2 cells = experiment: Endogenous gene transcriptional assay (real-time PCR of androgen responsive genes); conditions: 1 nM R1881 or 30 μM compound, vehicle=1.00
Method: Total RNA was isolated using the Aurum™ total RNA isolation kit (BIO-RAD, Hercules, Calif.). RNA (1 μg) was reverse transcribed using the iScript cDNA synthesis kit (BIO-RAD, Hercules, Calif.) to produce cDNA. Real-time PCR was performed using the Applied Biosystems 7900HT instrument and SYBR Green PCR Master Mix (Applied Biosystems, Foster City, Calif.). PCR reactions were performed in 6 μL according to the manufacturer's protocol and a thermocycle protocol of 95° C. for 10 minutes followed by 40 cycles of 95° C. for 15 seconds and 58° C. for 1 minute. Androgen responsive gene (PSA, SLUG, TMPRSS2, STEAP4, FKBP5, ORM1, NOV, FASN, NKX3.1, AMIGO2, BDNF, CAMK2N1, HPGD, NCAPD3, PLD1) expression was normalized to GAPDH expression and expressed relative to vehicle treatment of the parental cell line.
Gene expression was normalized to GAPDH as described above.

CNC(=O)c1ccc(N2C(=S)N(c3ccc(C#N)c(C(F)(F)F)c3)C(=O)C2(C)C)cc1F [Enzalutamide, enzalutamide]
FASN expression, agonist transcription (LNCaP/AR(cs) cells; −R1881, 0.3 μM): 0.47
FKBP5 expression, agonist transcription (LNCaP/AR(cs) cells; −R1881, 0.3 μM): 0.91
HPGD expression, agonist transcription (LNCaP/AR(cs) cells; −R1881, 0.3 μM): 0.74
NCAPD3 expression, agonist transcription (LNCaP/AR(cs) cells; −R1881, 0.3 μM): 0.66
NKX3.1 expression, agonist transcription (LNCaP/AR(cs) cells; −R1881, 0.3 μM): 0.71
NOV expression, agonist transcription (LNCaP/AR(cs) cells; −R1881, 0.3 μM): 1.12
ORM1 expression, agonist transcription (LNCaP/AR(cs) cells; −R1881, 0.3 μM): 0.92
PLD1 expression, agonist transcription (LNCaP/AR(cs) cells; −R1881, 0.3 μM): 0.77
PSA expression, agonist transcription (LNCaP/AR(cs) cells; −R1881, 0.3 μM): 0.42
SLUG expression, agonist transcription (LNCaP/AR(cs) cells; −R1881, 0.3 μM): 0.53
STEAP4 expression, agonist transcription (LNCaP/AR(cs) cells; −R1881, 0.3 μM): 0.75
TMPRSS2 expression, agonist transcription (LNCaP/AR(cs) cells; −R1881, 0.3 μM): 0.75
AMIGO2 expression, agonist transcription (LNCaP/AR(cs) cells; −R1881, 1 μM): 0.61
BDNF expression, agonist transcription (LNCaP/AR(cs) cells; −R1881, 1 μM): 0.92
CAM2KN1 expression, agonist transcription (LNCaP/AR(cs) cells; −R1881, 1 μM): 0.70
FASN expression, agonist transcription (LNCaP/AR(cs) cells; −R1881, 1 μM): 0.32
FKBP5 expression, agonist transcription (LNCaP/AR(cs) cells; −R1881, 1 μM): 0.62
HPGD expression, agonist transcription (LNCaP/AR(cs) cells; −R1881, 1 μM): 0.57
NCAPD3 expression, agonist transcription (LNCaP/AR(cs) cells; −R1881, 1 μM): 0.57
NKX3.1 expression, agonist transcription (LNCaP/AR(cs) cells; −R1881, 1 μM): 0.52
NOV expression, agonist transcription (LNCaP/AR(cs) cells; −R1881, 1 μM): 0.91
ORM1 expression, agonist transcription (LNCaP/AR(cs) cells; −R1881, 1 μM): 0.90
PLD1 expression, agonist transcription (LNCaP/AR(cs) cells; −R1881, 1 μM): 0.62
PSA expression, agonist transcription (LNCaP/AR(cs) cells; −R1881, 1 μM): 0.32
SLUG expression, agonist transcription (LNCaP/AR(cs) cells; −R1881, 1 μM): 0.55
STEAP4 expression, agonist transcription (LNCaP/AR(cs) cells; −R1881, 1 μM): 0.73
TMPRSS2 expression, agonist transcription (LNCaP/AR(cs) cells; −R1881, 1 μM): 0.53
AMIGO2 expression, agonist transcription (LNCaP/AR(cs) cells; −R1881, 3 μM): 0.62
BDNF expression, agonist transcription (LNCaP/AR(cs) cells; −R1881, 3 μM): 0.88
CAM2KN1 expression, agonist transcription (LNCaP/AR(cs) cells; −R1881, 3 μM): 0.71
FASN expression, agonist transcription (LNCaP/AR(cs) cells; −R1881, 3 μM): 0.29
FKBP5 expression, agonist transcription (LNCaP/AR(cs) cells; −R1881, 3 μM): 0.75
HPGD expression, agonist transcription (LNCaP/AR(cs) cells; −R1881, 3 μM): 0.61
NCAPD3 expression, agonist transcription (LNCaP/AR(cs) cells; −R1881, 3 μM): 0.47
NKX3.1 expression, agonist transcription (LNCaP/AR(cs) cells; −R1881, 3 μM): 0.51
NOV expression, agonist transcription (LNCaP/AR(cs) cells; −R1881, 3 μM): 0.80
ORM1 expression, agonist transcription (LNCaP/AR(cs) cells; −R1881, 3 μM): 1.06
PLD1 expression, agonist transcription (LNCaP/AR(cs) cells; −R1881, 3 μM): 0.63
PSA expression, agonist transcription (LNCaP/AR(cs) cells; −R1881, 3 μM): 0.38
SLUG expression, agonist transcription (LNCaP/AR(cs) cells; −R1881, 3 μM): 0.31
STEAP4 expression, agonist transcription (LNCaP/AR(cs) cells; −R1881, 3 μM): 0.52
TMPRSS2 expression, agonist transcription (LNCaP/AR(cs) cells; −R1881, 3 μM): 0.63
AMIGO2 expression, agonist transcription (LNCaP/AR(cs) cells; −R1881, 10 μM): 0.66
BDNF expression, agonist transcription (LNCaP/AR(cs) cells; −R1881, 10 μM): 0.95
CAM2KN1 expression, agonist transcription (LNCaP/AR(cs) cells; −R1881, 10 μM): 0.64
FASN expression, agonist transcription (LNCaP/AR(cs) cells; −R1881, 10 μM): 0.31
FKBP5 expression, agonist transcription (LNCaP/AR(cs) cells; −R1881, 10 μM): 0.61
HPGD expression, agonist transcription (LNCaP/AR(cs) cells; −R1881, 10 μM): 0.63
NCAPD3 expression, agonist transcription (LNCaP/AR(cs) cells; −R1881, 10 μM): 0.56
NKX3.1 expression, agonist transcription (LNCaP/AR(cs) cells; −R1881, 10 μM): 0.86
ORM1 expression, agonist transcription (LNCaP/AR(cs) cells; −R1881, 10 μM): 0.71
PLD1 expression, agonist transcription (LNCaP/AR(cs) cells; −R1881, 10 μM): 0.56
PSA expression, agonist transcription (LNCaP/AR(cs) cells; −R1881, 10 μM): 0.74
SLUG expression, agonist transcription (LNCaP/AR(cs) cells; −R1881, 10 μM): 0.51
STEAP4 expression, agonist transcription (LNCaP/AR(cs) cells; −R1881, 10 μM): 1.16
TMPRSS2 expression, agonist transcription (LNCaP/AR(cs) cells; −R1881, 10 μM): 0.89
CAM2KN1 expression, agonist transcription (LNCaP/AR(cs) cells; −R1881, 30 μM): 0.64
FKBP5 expression, agonist transcription (LNCaP/AR(cs) cells; −R1881, 30 μM): 0.85
NCAPD3 expression, agonist transcription (LNCaP/AR(cs) cells; −R1881, 30 μM): 0.79
NKX3.1 expression, agonist transcription (LNCaP/AR(cs) cells; −R1881, 30 μM): 1.63
ORM1 expression, agonist transcription (LNCaP/AR(cs) cells; −R1881, 30 μM): 2.02
PLD1 expression, agonist transcription (LNCaP/AR(cs) cells; −R1881, 30 μM): 0.56
PSA expression, agonist transcription (LNCaP/AR(cs) cells; −R1881, 30 μM): 1.60
SLUG expression, agonist transcription (LNCaP/AR(cs) cells; −R1881, 30 μM): 0.91
TMPRSS2 expression, agonist transcription (LNCaP/AR(cs) cells; −R1881, 30 μM): 1.45
Effect on growth inhibitory activity of R1881 in Class 1 cells [1]: antagonized
Ligand independent growth of Class 1 cells in presence of compound ([1]; absence of added androgens): unaltered
AMIGO2 gene expression (LNCaP ARN-509r2 cells): 0.63
BDNF gene expression (LNCaP ARN-509r2 cells): 0.77
CAM2KN1 gene expression (LNCaP ARN-509r2 cells): 0.38
FASN gene expression (LNCaP ARN-509r2 cells): 0.93
FKBP5 gene expression (LNCaP ARN-509r2 cells): 3.41
HPGD gene expression (LNCaP ARN-509r2 cells): 4.56
NCAPD3 gene expression (LNCaP ARN-509r2 cells): 1.35
NKX3.1 gene expression (LNCaP ARN-509r2 cells): 6.28
NOV gene expression (LNCaP ARN-509r2 cells): 0.71
ORM1 gene expression (LNCaP ARN-509r2 cells): 23.75
PLD1 gene expression (LNCaP ARN-509r2 cells): 0.29
PSA gene expression (LNCaP ARN-509r2 cells): 2.48
SLUG gene expression (LNCaP ARN-509r2 cells): 9.58
TMPRSS2 gene expression (LNCaP ARN-509r2 cells): 4.86
